{"source": "a melting point compilation (Tetko et al.; mined from patent text by program, amines drawn as free bases though some values may be those of a salt)", "data": [{"units": {"melting point": "°C"}, "values": [{"smiles": "CC(C)n1nc(-c2c(-c3ccccc3)nn3ccc(N4CCN(c5ccccn5)CC4)cc23)ccc1=O", "melting point": "221 to 222"}, {"smiles": "COc1ccc(CNc2ccccc2C)cc1O", "melting point": "104 to 105"}, {"smiles": "O=c1[nH]c2ccc(Cl)cc2c(=O)n1CCCCN1CC=C(c2ccccc2)CC1", "melting point": "214 to 222"}, {"smiles": "O=C(O)c1cn(-c2cc([N+](=O)[O-])c(F)cc2F)c2c(F)c(F)c(F)cc2c1=O", "melting point": "245 to 255"}, {"smiles": "CCOCC(C)Oc1ccc(COc2cnn(C(C)(C)C)c(=O)c2Cl)cc1", "note": "(centres undefined)", "melting point": "72.3 to 73.1"}, {"smiles": "c1cc(CSSc2nc3ccccc3s2)cc(CSSc2nc3ccccc3s2)c1", "melting point": "94 to 96"}, {"smiles": "COC(=O)c1ccc(-n2ccc(C)n2)cc1OC", "melting point": "167 to 169"}, {"smiles": "O=C(Nc1cnc2c(c1)nc1n2CCC1O)c1cc2cc(F)ccc2n1Cc1cccc(F)c1", "note": "(centres undefined)", "melting point": "288 to 290"}, {"smiles": "O=C(c1sc2ccc(C(F)(F)F)cc2c1O)N(C=Cc1ccccc1)C=Cc1ccccc1", "melting point": "165 to 167"}, {"smiles": "CCC(CSC#N)Nc1ccc(Cl)cc1[N+](=O)[O-]", "note": "(centres undefined)", "melting point": "126 to 128"}, {"smiles": "Fc1cccc(F)c1-c1nc(C(F)(F)F)n(-c2ccccc2C(F)(F)F)n1", "melting point": 90}, {"smiles": "CN(Nc1ccccc1COc1ccn(-c2ccc(Cl)cc2)n1)C(N)=O", "melting point": "152 to 154"}, {"smiles": "Cc1cc(O)c(SCc2ccccc2)c(=O)o1", "melting point": 128}, {"smiles": "CC[Si](CC)(CC)c1cccc2c1oc1c([Si](CC)(CC)CC)cccc12", "melting point": "59 to 61"}, {"smiles": "COC(=O)C(C(C)C)S(=O)(=O)N(C(C)=O)c1nc(OC)cc(OC)n1", "note": "(centres undefined)", "melting point": "100 to 102"}, {"smiles": "Cc1oc(-c2ccccc2)nc1CCOc1ccc(Cn2cc(CC(=O)O)c(-c3ccccc3)n2)cn1", "melting point": "148 to 149"}, {"smiles": "Cc1cc(Cn2nc(C(F)(F)F)cc2C(F)(F)F)ccc1NC(=O)c1cccc(Cl)c1C(=O)NC(C)(C)C(=O)O", "melting point": "179 to 184"}, {"smiles": "O=c1cc(O)c2cccc([N+](=O)[O-])c2o1", "melting point": "242 to 245"}, {"smiles": "CC1(C)NC(C)(C)c2ccccc21", "melting point": "36 to 38"}, {"smiles": "O=C(c1ccc(Cl)cc1)n1c2c(c3ccccc31)CC(C(=O)O)(C(=O)O)CC2", "melting point": "210 to 212"}, {"smiles": "[N-]=[N+]=N[C@H]1C[C@H](C(=O)O)C1", "melting point": "39 to 41"}, {"smiles": "ON=C(c1ccccc1)C(O)(c1ccccc1)c1ccccc1", "melting point": "150 to 152"}, {"smiles": "CNc1nc(CSC)c(-c2ccncc2)s1", "melting point": "135 to 138"}, {"smiles": "Cc1nc(-c2cccc(Cl)c2)c(CCC(=O)O)o1", "melting point": "159 to 160"}, {"smiles": "COc1ccc(CNC(=O)[C@@H](NC(=O)[C@H](NCc2cccc3ccccc23)[C@H](O)[C@H](Cc2ccccc2)NC(=O)OC(C)(C)C)C(C)C)c(O)c1", "melting point": "95 to 98"}, {"smiles": "CCOC(=O)C1=C(C)NC2=C(C(=O)OC2)C1c1ccccc1[N+](=O)[O-]", "note": "(centres undefined)", "melting point": "220 to 222"}, {"smiles": "CCCCCCCCCCCCCCCCCCS(=O)(=O)c1cc(C(=O)O)c2c(c1)c(=O)on2C", "melting point": "177 to 179"}, {"smiles": "CC(C)n1nc(-c2nc(NCCN(C)C)c(N)nc2-c2ccccc2)ccc1=O", "melting point": "188 to 189"}, {"smiles": "CCCCc1cc2cc(NS(C)(=O)=O)ccc2o1", "melting point": "105 to 106"}, {"smiles": "COC(=O)C=Cc1ccc(OCCN(C)c2ccccn2)c(F)c1", "melting point": "110 to 111"}, {"smiles": "COc1cc(C)ccc1Oc1ccc(Br)cc1O", "melting point": "75 to 76"}, {"smiles": "CC(O)CCc1ccc(-c2ccccc2F)cc1", "note": "(centres undefined)", "melting point": "59 to 60"}, {"smiles": "CN1CCCC(C(=O)N2CCC(c3[nH]nc4c3C(=O)c3c(NC(=O)NN5CCOCC5)cccc3-4)CC2)C1", "note": "(centres undefined)", "melting point": "158 to 160"}, {"smiles": "CCOC(=O)c1cnn2c1N(C(=O)CCl)CC=C2c1cccc(C(F)(F)F)c1", "melting point": "141 to 142"}, {"smiles": "CCOC(=O)c1noc(-c2ccc([N+](=O)[O-])cc2)n1", "melting point": "75 to 77"}, {"smiles": "COc1cccc(NC(=O)c2ccn3c2CSC3c2cccnc2)n1", "note": "(centres undefined)", "melting point": 154}, {"smiles": "CCS(=O)(=O)CCC(=O)NNC(=O)N1Cc2ccccc2Oc2ccc(C)cc21", "melting point": "167 to 169"}, {"smiles": "COC(=O)c1ccc2nc(C)ccc2c1", "melting point": "98 to 101"}, {"smiles": "COC(=O)C1=Cc2cc(OCc3ccc(Cl)cc3)ccc2S(=O)(=O)CC1", "melting point": "130 to 133"}, {"smiles": "CCCC(=O)Nc1cccc(C2(c3cc(C(=O)CC)n(CC)c3)N=C(N)N(C)C2=O)c1", "note": "(centres undefined)", "melting point": "201 to 205"}, {"smiles": "c1ccc(COCC2c3ccccc3-c3ccccc32)cc1", "melting point": "69.5 to 70"}, {"smiles": "CCCOCCOC(=O)C1=C(C)NC(C)=C(P(=O)(OC(C)C)OC(C)C)C1c1cccc([N+](=O)[O-])c1", "note": "(centres undefined)", "melting point": "125 to 126"}, {"smiles": "Cc1ccc(-c2ccc3cc(C(=O)Nc4ccc(CN(C)C5CCOCC5)cc4)[nH]c3c2)cc1", "melting point": "246 to 250"}, {"smiles": "CN1CC(CCN2CC(=O)NC2=O)CC2c3cccc4[nH]cc(c34)CC21", "note": "(centres undefined)", "melting point": "242 to 244"}, {"smiles": "COc1cc(C)c(/C=C/c2nc3c(c(=O)n(C)c(=O)n3C)n2C)cc1C", "melting point": "> 280"}, {"smiles": "O=C1NC(=O)C(c2ccccc2)(c2ccc(Br)cc2)N1", "note": "(centres undefined)", "melting point": "237 to 239"}, {"smiles": "CCOC(=O)Nc1ccc(OCc2ccc(Cl)cc2)cc1[N+](=O)[O-]", "melting point": 122}, {"smiles": "COc1cccc(CCN2C(=O)c3c(F)ccc(F)c3C2(O)c2ccccc2)c1", "note": "(centres undefined)", "melting point": 141}, {"smiles": "Cc1ccc(-c2ccc(C)cc2C=CC#Cc2ccc(C(=O)O)cc2)cc1", "melting point": "61 to 67"}, {"smiles": "CC(=O)C12CC(C(C)=O)(C1)C2", "melting point": "67 to 69"}, {"smiles": "O=c1c2cccnc2c(-c2cccc(Cl)c2)cn1CC1CCCC1", "melting point": "122 to 124"}, {"smiles": "Cc1nnc(SCc2ccc(C(=O)N(C)C)cc2)s1", "melting point": "75 to 80"}, {"smiles": "COc1ccc(N2C(=O)CCNc3ccc(Cl)cc32)cc1", "melting point": "198 to 199"}, {"smiles": "O=C(CC1COC1)N[C@H]1CC[C@H](CCN2CCN(c3nccc4c3CCO4)CC2)CC1", "melting point": 195}, {"smiles": "Cc1c(C(=O)Cl)cccc1S(=O)(=O)CCCl", "melting point": "67 to 70"}, {"smiles": "Nc1cnc2ccsc2c1", "melting point": "121 to 123"}, {"smiles": "C=C1c2ccccc2C=Cn2c(OC)nnc21", "melting point": "160 to 161"}, {"smiles": "Cc1cc([C@@H](O)[C@@H](C)N2CCC(O)(c3ccc(F)cc3)CC2)cc(C)c1O[Si](C(C)C)(C(C)C)C(C)C", "note": "(relative stereo)", "melting point": "186 to 187"}, {"smiles": "CC(C)(C)OC(=O)N1CCC(NCc2cccc(NC(=O)c3ccc(F)cc3)n2)CC1", "melting point": 77.7}, {"smiles": "COc1ccc(CN2CC(=O)Nc3cccc(Cl)c3C2=O)c(OC)c1", "melting point": "230 to 231"}, {"smiles": "CCOCCOc1c(C)cc(-c2ccc3c(c2)C=C(C(=O)Nc2ccc(CN(C)C4CCOCC4)cc2)CCS3(=O)=O)cc1C", "melting point": "211 to 212"}, {"smiles": "COc1cccc(CN(CC(=O)O)Cc2ccccc2)c1", "melting point": "177 to 179"}, {"smiles": "Cc1oc(-c2ccccc2)nc1COc1ccc(OCc2oc(-c3ccccc3)nc2C=O)cc1", "melting point": "127 to 128"}, {"smiles": "CCOC(=O)C1=C(C)NC(C)=C(C(=O)OCC)C1c1c(C)sc2ccccc12", "melting point": "191 to 193"}, {"smiles": "CC(=O)Nc1ccc(S(F)(F)(F)(F)F)cc1[N+](=O)[O-]", "melting point": "135 to 138"}, {"smiles": "CC(=O)Oc1cccnc1-n1ccnc1SCc1ccccc1N1CCOCC1", "melting point": "89 to 91"}, {"smiles": "CNC(=O)C(Cc1c[nH]c2ccccc12)NC(=O)C(C)(CC(C)C)c1ccc(Cl)cc1S", "note": "(centres undefined)", "melting point": "75 to 78"}, {"smiles": "O=c1[nH]nnn1-c1ccc(C(F)(F)F)cc1", "melting point": "191 to 192"}, {"smiles": "CC(C)C[C@H](NC(=S)Nc1ccccc1)C(=O)N[C@H]1CCOC1O", "note": "(some centres undefined)", "melting point": "62 to 63.8"}]}]}
